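Briefly, cells in 96-well plates were exposed to five compound concentrations for 48 h, and endpoints were estimated by linear interpolation. GI50: concentration for 50% inhibition of growth.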 The source made the active and inactive calls. No stated cut-off is given here; in the data, active = GI50 up to about 1.1 µM and inactive = higher.
Key:
Experiment in all cases: growth of human tumour cells (NCI), 48 h
[1] = test system: BT-549
[2] = test system: HCT-116
[3] = test system: HOP-92
[4] = test system: Hs-578T
[5] = test system: M14
[6] = test system: MCF7
[7] = test system: MDA-MB-435
[8] = test system: NCI-H226
[9] = test system: NCI-H23
[10] = test system: NCI-H522
[11] = test system: OVCAR-3
[12] = test system: OVCAR-4
[13] = test system: OVCAR-5
[14] = test system: SF-539
[15] = test system: SNB-19
[16] = test system: SW-620
[17] = test system: T47D
[18] = test system: U-251
[19] = test system: UACC-62
[20] = test system: SK-MEL-2

SMILES | GI50 [1] | GI50 [2] | GI50 [3] | GI50 [4] | GI50 [5] | GI50 [6] | GI50 [7] | GI50 [8] | GI50 [9] | GI50 [10] | GI50 [11] | GI50 [12] | GI50 [13] | GI50 [14] | GI50 [15] | GI50 [16] | GI50 [17] | GI50 [18] | GI50 [19] | GI50 [20]
Cc1cc(S(=O)(=O)Nc2nc3cccnc3[nH]2)c(S)cc1Cl | > 100 µM (inactive) | > 100 µM (inactive) | > 100 µM (inactive) | 74 µM (inactive) | > 100 µM (inactive) | > 100 µM (inactive) | > 100 µM (inactive) | 52.2 µM (inactive) | 97.5 µM (inactive) | 70.5 µM (inactive) | > 100 µM (inactive) | 79.4 µM (inactive) | > 100 µM (inactive) | > 100 µM (inactive) | 77.8 µM (inactive) | > 100 µM (inactive) | 46.8 µM (inactive) | 63.2 µM (inactive) | 85.1 µM (inactive) | –
CCCCSC1=N/C(=C\c2ccc(N(C)C)cc2)C(NN)=N1 | > 100 µM (inactive) | > 100 µM (inactive) | > 100 µM (inactive) | > 100 µM (inactive) | > 100 µM (inactive) | > 100 µM (inactive) | > 100 µM (inactive) | – | > 100 µM (inactive) | > 100 µM (inactive) | > 100 µM (inactive) | > 100 µM (inactive) | > 100 µM (inactive) | – | > 100 µM (inactive) | > 100 µM (inactive) | > 100 µM (inactive) | > 100 µM (inactive) | > 100 µM (inactive) | > 100 µM (inactive)
Nc1ccn(C2CC(O)C(COP(=O)(S)OC3CC(n4ccc(N)nc4=O)OC3CO)O2)c(=O)n1 (configuration not stated) | > 100 µM (inactive) | > 100 µM (inactive) | > 100 µM (inactive) | > 100 µM (inactive) | > 100 µM (inactive) | > 100 µM (inactive) | > 100 µM (inactive) | – | > 100 µM (inactive) | > 100 µM (inactive) | > 100 µM (inactive) | > 100 µM (inactive) | > 100 µM (inactive) | > 100 µM (inactive) | > 100 µM (inactive) | > 100 µM (inactive) | > 100 µM (inactive) | > 100 µM (inactive) | > 100 µM (inactive) | > 100 µM (inactive)
C=C(C)c1cc(C(C)(C)C)cc(C(=C)C)c1S(C)(=O)=O | > 100 µM (inactive) | > 100 µM (inactive) | – | > 100 µM (inactive) | > 100 µM (inactive) | > 100 µM (inactive) | > 100 µM (inactive) | > 100 µM (inactive) | > 100 µM (inactive) | > 100 µM (inactive) | > 100 µM (inactive) | > 100 µM (inactive) | > 100 µM (inactive) | > 100 µM (inactive) | > 100 µM (inactive) | > 100 µM (inactive) | 10.7 µM (inactive) | > 100 µM (inactive) | > 100 µM (inactive) | > 100 µM (inactive)
COC(=O)c1cnc(Cl)cn1 | 37 µM (inactive) | 38.2 µM (inactive) | 28.4 µM (inactive) | 50.6 µM (inactive) | 53.8 µM (inactive) | 38.4 µM (inactive) | 48.4 µM (inactive) | 35.2 µM (inactive) | 20.1 µM (inactive) | 2.49 µM (inactive) | – | 20.2 µM (inactive) | 58.3 µM (inactive) | 74.3 µM (inactive) | > 100 µM (inactive) | 63.7 µM (inactive) | 40.3 µM (inactive) | 34.9 µM (inactive) | 33 µM (inactive) | 48 µM (inactive)
CC(C)OP(=O)(OC(C)C)C(C(C)C)N(C)/C(N)=N/C#N (configuration not stated) | > 100 µM (inactive) | > 100 µM (inactive) | > 100 µM (inactive) | > 100 µM (inactive) | > 100 µM (inactive) | > 100 µM (inactive) | > 100 µM (inactive) | > 100 µM (inactive) | > 100 µM (inactive) | > 100 µM (inactive) | > 100 µM (inactive) | > 100 µM (inactive) | – | > 100 µM (inactive) | > 100 µM (inactive) | > 100 µM (inactive) | > 100 µM (inactive) | > 100 µM (inactive) | > 100 µM (inactive) | > 100 µM (inactive)
COc1cc2c(cc1OC)C/C(=N\O)c1cc(OC)c(OC)cc1/C=C\2 | 28.7 µM (inactive) | 3.82 µM (inactive) | 43.8 µM (inactive) | 2.12 µM (inactive) | 3.47 µM (inactive) | 5.27 µM (inactive) | 0.822 µM (active) | 5.56 µM (inactive) | 14.2 µM (inactive) | 1.01 µM (active) | 3.67 µM (inactive) | 55.5 µM (inactive) | – | 4.22 µM (inactive) | 7.08 µM (inactive) | 3.48 µM (inactive) | 10.6 µM (inactive) | 4.66 µM (inactive) | 6.81 µM (inactive) | 3.44 µM (inactive)

— ChEMBL document CHEMBL1201862, “PubChem BioAssay data set” (2004)
